Laboratory results: patent US20130203718A1 (priority 2010, published 2013)

Legend:
hAR = target: T1, hAR (Homo sapiens, UniProt P10275); experiment: APRn selectivity: transactivation in HEK293T cells transiently expressing hAR; assay type: cell-based; settings: for agonist efficacy towards hAR (in words): HEK293T, FIG. 11
T1 construct: expressed in transfected cells; host or cells: HEK 293T
T1 sequence (P10275 1-920): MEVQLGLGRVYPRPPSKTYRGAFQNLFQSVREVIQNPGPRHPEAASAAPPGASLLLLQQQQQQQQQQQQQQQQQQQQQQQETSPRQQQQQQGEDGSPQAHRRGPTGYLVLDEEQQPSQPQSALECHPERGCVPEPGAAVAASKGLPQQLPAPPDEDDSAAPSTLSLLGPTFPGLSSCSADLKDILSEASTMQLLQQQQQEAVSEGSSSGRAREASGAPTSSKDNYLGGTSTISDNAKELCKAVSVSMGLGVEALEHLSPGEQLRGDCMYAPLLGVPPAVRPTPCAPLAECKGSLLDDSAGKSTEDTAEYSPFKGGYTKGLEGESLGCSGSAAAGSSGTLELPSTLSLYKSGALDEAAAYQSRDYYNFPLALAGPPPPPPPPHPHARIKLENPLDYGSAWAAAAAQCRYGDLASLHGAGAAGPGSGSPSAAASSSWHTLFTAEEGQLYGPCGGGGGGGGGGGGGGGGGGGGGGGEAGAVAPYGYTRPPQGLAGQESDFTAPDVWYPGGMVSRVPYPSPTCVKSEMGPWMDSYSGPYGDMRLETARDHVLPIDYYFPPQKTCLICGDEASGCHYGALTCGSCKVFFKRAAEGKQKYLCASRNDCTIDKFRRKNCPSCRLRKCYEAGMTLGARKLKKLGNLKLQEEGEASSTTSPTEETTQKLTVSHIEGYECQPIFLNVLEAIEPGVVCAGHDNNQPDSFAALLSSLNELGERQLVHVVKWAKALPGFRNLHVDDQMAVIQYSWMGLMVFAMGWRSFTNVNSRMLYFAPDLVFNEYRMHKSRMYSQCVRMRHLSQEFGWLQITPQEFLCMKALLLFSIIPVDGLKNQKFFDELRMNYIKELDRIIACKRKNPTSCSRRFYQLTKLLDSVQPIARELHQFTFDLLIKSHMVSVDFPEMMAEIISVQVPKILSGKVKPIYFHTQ
Experimental: (§1) Measurement of the APRn Selectivity in HEK 293T.
(§2) The HEK-293T cells were cultured and transfected according to the method described above for the PR transactivation assays. The expression vectors pcDNA-hAR, kindly provided by G. A. Coetzee, pchGR (Hellal-Levy, C et al. FEBS Lett 1999, 464, 9), and pchMR (Fagart, J. et al. EMBO J. 1998, 17, 3317) were used for studying the ability of APRn to activate or inactivate the AR, GR and MR, respectively. For each transfection assays, 2 μg of the expression vector was used together with 7 μg of the GRE2-Luc reporter vector. Dihydrotestosterone (DHT), dexamethasone (Dex) and Aldosterone (Aldo) were selected as AR, GR and MR ligands, respectively. They were used at the concentration of 10^−9 M. The APRn agonist and antagonist efficacy for AR, GR and MR were measured as described above for PR. The results are the mean±SEM of three independent experiments.
(§3) Transfection assays were performed in HEK 293T cells by using expression vectors for the hAR, hGR and hMR and the GRE2-Luc reporter used for the PR transactivation assays.

hMR = target: T2, hMR (Homo sapiens, UniProt P08235); experiment: APRn selectivity: transactivation in HEK293T cells transiently expressing hMR; assay type: cell-based; settings: mean±SEM
T2 construct: expressed in transfected cells; host or cells: HEK 293T
T2 sequence (P08235 1-984): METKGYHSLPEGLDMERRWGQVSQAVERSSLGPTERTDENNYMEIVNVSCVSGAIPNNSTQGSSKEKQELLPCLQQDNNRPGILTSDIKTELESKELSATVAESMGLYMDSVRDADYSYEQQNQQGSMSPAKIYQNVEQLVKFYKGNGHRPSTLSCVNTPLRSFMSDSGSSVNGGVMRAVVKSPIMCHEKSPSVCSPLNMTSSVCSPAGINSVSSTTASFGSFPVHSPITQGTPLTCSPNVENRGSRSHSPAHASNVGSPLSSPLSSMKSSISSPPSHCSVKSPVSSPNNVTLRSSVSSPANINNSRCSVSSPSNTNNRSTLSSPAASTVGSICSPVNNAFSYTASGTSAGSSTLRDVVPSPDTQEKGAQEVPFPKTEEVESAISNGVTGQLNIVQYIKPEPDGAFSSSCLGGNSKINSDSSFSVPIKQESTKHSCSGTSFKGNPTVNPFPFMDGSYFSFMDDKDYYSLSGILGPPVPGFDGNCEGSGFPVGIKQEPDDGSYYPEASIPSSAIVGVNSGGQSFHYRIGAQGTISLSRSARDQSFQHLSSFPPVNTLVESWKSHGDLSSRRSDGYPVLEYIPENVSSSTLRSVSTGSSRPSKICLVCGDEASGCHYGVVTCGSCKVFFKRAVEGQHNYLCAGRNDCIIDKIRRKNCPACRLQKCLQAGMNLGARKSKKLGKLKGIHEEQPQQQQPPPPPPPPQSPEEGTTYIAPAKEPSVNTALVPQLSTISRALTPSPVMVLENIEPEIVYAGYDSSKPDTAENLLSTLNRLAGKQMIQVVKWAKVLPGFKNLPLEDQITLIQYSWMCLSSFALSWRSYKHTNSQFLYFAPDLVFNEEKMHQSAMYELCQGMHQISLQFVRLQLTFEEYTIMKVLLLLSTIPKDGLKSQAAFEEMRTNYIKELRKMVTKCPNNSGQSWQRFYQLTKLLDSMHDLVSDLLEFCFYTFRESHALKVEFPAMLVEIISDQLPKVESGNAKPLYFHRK
Experimental: as §1, §2, §3

hGR = target: T3, hGR (Homo sapiens, UniProt P04150); experiment: APRn selectivity: transactivation in HEK293T cells transiently expressing hGR; assay type: cell-based; settings: HEK293T transiently expressing hGR, mean±SEM
T3 construct: expressed in transfected cells; host or cells: HEK 293T
T3 sequence (P04150 1-777): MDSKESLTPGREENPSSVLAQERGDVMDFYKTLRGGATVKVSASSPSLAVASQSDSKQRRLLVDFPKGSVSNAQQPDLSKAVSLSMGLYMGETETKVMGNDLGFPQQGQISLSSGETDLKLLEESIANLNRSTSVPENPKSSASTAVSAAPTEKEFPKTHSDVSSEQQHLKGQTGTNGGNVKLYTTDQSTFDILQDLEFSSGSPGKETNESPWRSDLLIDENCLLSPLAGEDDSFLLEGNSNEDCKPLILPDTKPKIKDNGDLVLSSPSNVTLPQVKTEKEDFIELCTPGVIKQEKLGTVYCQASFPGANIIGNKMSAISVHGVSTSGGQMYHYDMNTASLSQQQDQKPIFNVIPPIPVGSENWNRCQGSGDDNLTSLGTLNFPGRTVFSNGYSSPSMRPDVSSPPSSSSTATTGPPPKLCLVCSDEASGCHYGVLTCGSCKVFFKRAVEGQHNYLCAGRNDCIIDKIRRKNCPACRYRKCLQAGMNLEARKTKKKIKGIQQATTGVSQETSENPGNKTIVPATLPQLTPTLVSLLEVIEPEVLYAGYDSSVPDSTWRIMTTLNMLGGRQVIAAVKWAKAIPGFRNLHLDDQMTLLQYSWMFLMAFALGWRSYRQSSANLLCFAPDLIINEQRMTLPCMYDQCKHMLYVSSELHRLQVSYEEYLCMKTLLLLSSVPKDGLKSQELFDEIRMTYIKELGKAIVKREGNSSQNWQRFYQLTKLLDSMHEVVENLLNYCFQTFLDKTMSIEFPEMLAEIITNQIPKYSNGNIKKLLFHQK
Experimental: as §1, §2, §3

hPRB = target: T4, hPRB (Homo sapiens, UniProt P06401); experiment: PR transactivation assay (GRE2-Luc) in HEK293T cells transiently expressing hPRB; assay type: cell-based; set-up: expressed in transfected cells; host or cells: HEK 293T; settings: series 1 (no C3 substituent), HEK293T, APRn 1 μM, FIG. 1
T4 sequence (P06401 1-933): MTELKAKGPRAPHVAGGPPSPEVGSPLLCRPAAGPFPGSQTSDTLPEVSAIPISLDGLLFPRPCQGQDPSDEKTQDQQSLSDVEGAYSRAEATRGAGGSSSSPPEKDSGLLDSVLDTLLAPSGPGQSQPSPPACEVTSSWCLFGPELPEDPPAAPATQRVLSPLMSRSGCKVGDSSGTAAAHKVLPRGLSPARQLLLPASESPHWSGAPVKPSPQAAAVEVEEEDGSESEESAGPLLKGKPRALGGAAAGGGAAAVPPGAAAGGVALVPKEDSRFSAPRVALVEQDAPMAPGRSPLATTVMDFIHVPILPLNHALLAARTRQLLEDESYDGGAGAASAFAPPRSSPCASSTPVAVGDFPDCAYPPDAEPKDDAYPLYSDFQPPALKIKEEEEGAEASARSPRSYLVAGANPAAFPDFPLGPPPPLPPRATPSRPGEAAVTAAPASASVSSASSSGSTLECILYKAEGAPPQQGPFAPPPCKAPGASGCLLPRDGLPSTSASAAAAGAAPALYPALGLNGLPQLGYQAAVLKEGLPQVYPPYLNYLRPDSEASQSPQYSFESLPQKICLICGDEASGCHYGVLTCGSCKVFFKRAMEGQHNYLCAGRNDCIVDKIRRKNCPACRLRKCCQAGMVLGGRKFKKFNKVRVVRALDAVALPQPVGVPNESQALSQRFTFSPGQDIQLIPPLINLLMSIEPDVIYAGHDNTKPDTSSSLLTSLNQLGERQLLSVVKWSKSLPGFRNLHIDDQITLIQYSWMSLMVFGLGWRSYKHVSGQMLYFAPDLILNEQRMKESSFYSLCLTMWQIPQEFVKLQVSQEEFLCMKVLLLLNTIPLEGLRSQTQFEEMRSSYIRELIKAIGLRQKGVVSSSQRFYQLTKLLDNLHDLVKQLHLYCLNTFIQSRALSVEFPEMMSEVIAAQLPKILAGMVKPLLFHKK
Experimental: PR Transactivation Assays in HEK 293T.
HEK 293T cells were routinely cultured in a high-glucose DMEM medium (Invitrogene, Cergy Pontoise, France), 20 mM HEPES, 2 mM glutamine, 1× non essential amino acids, 100 U/mL penicillin and 100 μg/mL streptomycin supplemented with 10% foetal calf serum (FCS) in a humidified atmosphere at 37° C. and with 5% CO2. One day before transfection, the cells were seeded at 3×10^6 cells/[…] diameter culture Petri dish and cultured overnight in the same medium. Six hours before transfection, the FCS supplemented medium was replaced by the same medium supplemented with 10% dextran-charcoal treated FCS. Transfections were carried out using the calcium phosphate precipitation method. The calcium phosphate precipitate was prepared with 0.5 μg pchPRB (Petit-Topin, et al Mol Pharmacol, 2009, 75, 1317), 7 μg reporter vector (GRE2-Luc from A. Biola-Vidamment and M. Pallardy) and 1 μg of pcβgal for an internal transfection control, in 1 mL 140 mM NaCl, 0.75 mM Na2HPO4, 25 mM HEPES, 125 mM CaCl2 pH 7.05 and added to the cells 30 minutes later. After 16 h incubation, the transfected cells were washed with PBS containing 2.5 mM EDTA, trypsinized and pooled. The transfected cells were replated in 24-well plates (100.000 transfected cells/well). […] Cells were lysed in 300 μl PBS 1×, 25 mM glycylglycine, 4 mM EDTA, 15% glycerol, 1% triton X-100, 15 mM MgSO4, pH 7.8 supplemented with 2 mM β-mercaptoethanol. The luciferase activities were quantified by using a Mithras LB940 reader microplates (Berthold).
The APRn “agonist efficacy” was determined from the following formula:
Agonist efficacy=[luciferase activity]1/[luciferase activity]2×100
The APRn “antagonist efficacy” was calculated from the following formula:
Antagonist efficacy=100−[luciferase activity]1/[luciferase activity]2×100
The results are the mean±SEM of three to five independent experiments.
All the synthesized APRn were classified in 4 series depending on the nature of their C3 substituent (R1/R′1 groups). The first one (series 1) includes APRn with no C3 substituent (R1═R′1═H) whereas series 2, 3 and 4 are related to APRn bearing a methoxyl (R1═OMe), a hydroxyl (R1═OH) and a fluorine atom (R1═F), respectively. The agonist/antagonist activities of APRn were determined either in human HEK293T cells transiently expressing hPRB or in human MDA-MB-231 iPRAB cells conditionally expressing hPRB, by using a luciferase reporter gene placed under the control of a glucocorticoid response element (GRE2-Luc). The APRn “agonist efficacy” was determined from the luciferase activity measured in the presence of APRn (1 μM). […] The “agonist efficacy” and “antagonist efficacy” are expressed as defined in the biological protocols section.

Question: With `CC(=O)[C@H]1CC[C@H]2[C@@H]3CC[C@H]4C[C@@H](F)CC[C@]4(C)[C@H]3CC[C@]12C` [APR-17, 3β-Fluoro-5α-pregnan-20-one] as the molecule, how does the “agonist efficacy towards hAR (in words)” value (hAR) read?
Answer: low agonist efficacy

Question: And the “selectivity for hPR vs hAR, hGR and hMR (in words)” value (hAR; conclusion from hAR, hGR and hMR transactivation assays)?
Answer: selective hPR antagonists

Question: And the melting point?
Answer: 154 to 155 °C

Question: For `CC#C[C@]1(O)CCC2C3CC=C4C[C@@H](F)CC[C@]4(C)C3CC[C@@]21C` (stereo partly drawn) [APR-44, 31-Fluoro-17α-(1-propynyl)androst-5-en-17β-ol], which “MR Antagonist efficacy (%)” value (hMR; aldosterone 10^−9 M) is on record?
Answer: 1.6 ± 5.5%

Question: And the “MR Agonist efficacy (%)” value (hMR)?
Answer: 0.47 ± 0.10%

Question: And the melting point?
Answer: 136 to 137 °C

Question: What about the “GR Antagonist efficacy (%)” value (hGR; dexamethasone 10^−9 M) of the same molecule?
Answer: 2.0 ± 2.8%

Question: What about the Emax (hGR; HEK-293T, read-out: GR Agonist efficacy (%)) of the same molecule?
Answer: 0.2 ± 0.1%

Question: What does the source list for `CC(=O)O[C@H]1CCC2C3CC=C4C=CCC[C@@H]4C3CC[C@@]21C` (stereo partly drawn) [APR-49, 17β-Acetoxy-19-nor-androst-3,5-diene]?
Answer: agonist efficacy towards hAR (in words) (hAR): high potent hAR agonists; melting point: 94 to 95 °C; hPRB agonist/antagonist character (in words) (hPRB): full antagonists
